The source of these data is ChEMBL document CHEMBL5393444, “Sulfonamide derivatives as ctps1 inhibitors” (2022).

The target of assay [1] is T1, CTP synthase 1 (Homo sapiens, UniProt P17812).
T1 sequence (P17812 whole entry): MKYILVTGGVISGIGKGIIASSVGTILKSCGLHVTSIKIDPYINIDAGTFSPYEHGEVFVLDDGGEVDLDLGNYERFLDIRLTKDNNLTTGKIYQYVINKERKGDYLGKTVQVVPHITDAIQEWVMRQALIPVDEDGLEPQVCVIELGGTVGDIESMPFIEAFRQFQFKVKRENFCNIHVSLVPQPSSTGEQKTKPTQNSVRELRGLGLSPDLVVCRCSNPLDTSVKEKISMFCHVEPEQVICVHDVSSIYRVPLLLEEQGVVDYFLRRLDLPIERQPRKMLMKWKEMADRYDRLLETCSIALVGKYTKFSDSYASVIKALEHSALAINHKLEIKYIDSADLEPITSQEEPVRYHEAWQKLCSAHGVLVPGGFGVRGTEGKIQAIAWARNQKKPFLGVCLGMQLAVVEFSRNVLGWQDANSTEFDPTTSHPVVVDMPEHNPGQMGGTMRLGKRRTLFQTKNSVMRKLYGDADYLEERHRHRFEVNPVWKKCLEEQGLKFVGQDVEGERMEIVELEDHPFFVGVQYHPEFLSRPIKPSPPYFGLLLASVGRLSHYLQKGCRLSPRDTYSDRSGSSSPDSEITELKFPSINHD
Kind of assay: Inhibition of C-terminal FLAG-His8-tagged full length human CTPS1 preincubated for 10 mins followed by substrate addition by ADP-Glo assay.

Assay [2] is filed under the species Homo sapiens. Briefly: Selectivity ratio of IC50 for human CTPS2 to IC50 for human CTPS1 by RapidFire/MS analysis.

pIC50: −log10 of the molar value.

`O=C(Cc1ccnc(NS(=O)(=O)C2CC2)n1)Nc1ccc(-c2cncc(C(F)(F)F)n2)cc1`: in assay [1], the pIC50 was ≥ 7.00.

Regarding `CCC(C(=O)Nc1ccc(-c2cncc(C(F)(F)F)n2)cc1F)c1ccnc(NS(=O)(=O)C2CC2)n1` (stereo unspecified), the pIC50 in assay [1] is ≥ 7.00.

In the case of `CC(C)(C(=O)Nc1ccc(-c2cccnc2)cc1)c1ccnc(NS(=O)(=O)C2CC2)n1`, in assay [2], the Ratio IC50 was 2.

As to `CC(C)c1cncc(-c2ccc(NC(=O)C(C)(C)c3ccnc(NS(=O)(=O)C4CC4)n3)cc2)n1`, the Ratio IC50 in assay [2] stood at 30.

For `CCC(C(=O)Nc1ccc(-c2cncc(Cl)c2)cc1)c1ccnc(NS(=O)(=O)C2CC2)n1` (stereo unspecified), the Ratio IC50 in assay [2] is 2.

Take `CC(C)Oc1cncc(-c2ccc(C(=O)NC(C)(C)c3cncc(NS(=O)(=O)C4CC4)n3)c(F)c2)n1`: in assay [2], the Ratio IC50 turned out to be 2.

For `CCC(C(=O)Nc1ccc(-c2cncc(OC(C)C)n2)cc1)c1ccnc(NS(=O)(=O)C2CC2)n1` (stereo unspecified), the pIC50 in assay [1] is ≥ 7.00.

On to `CCOc1cncc(-c2ccc(NC(=O)C(F)(F)c3ccnc(NS(=O)(=O)C4CC4)n3)c(F)c2)n1`, for which the pIC50 in assay [1] is ≥ 7.00.

On to `CC(C)(C(=O)Nc1ccc(-c2cncc(OC3CC3)n2)cn1)c1ccnc(NS(=O)(=O)C2CC2)n1`, for which the pIC50 in assay [1] was ≥ 7.00.

Turning to `CCOc1cncc(-c2ccc(NC(=O)C(C)(C)c3ccnc(NS(C)(=O)=O)n3)nc2)n1`, the Ratio IC50 in assay [2] is 30.

Consider `Cc1ncc(-c2ccc(NC(=O)C(C)(C)c3ccnc(NS(C)(=O)=O)n3)c(C)c2)cn1`, for which the pIC50 in assay [1] was ≤ 6.00.

As for `CCOc1cncc(-c2ccc(NC(=O)C3(c4ccnc(NS(=O)(=O)C5CC5)n4)CCC(N(C)C)CC3)nc2)n1` (stereo in doubt; form 1) [listing 1 of 2 here], the Ratio IC50 in assay [2] is > 60.

Turning to `CCOc1cncc(-c2ccc(NC(=O)C(C)(OC)c3cncc(NS(=O)(=O)C4CC4)n3)nc2)n1` (stereo in doubt; form 1), the Ratio IC50 in assay [2] is > 60.

On to `CCC(C(=O)Nc1ccc(-c2cncc(OC)n2)cc1)c1ccnc(NS(=O)(=O)C2CC2)n1` (stereo unspecified), for which the pIC50 in assay [1] is ≥ 7.00.

In the case of `CCOc1cncc(-c2ccc(NC(=O)C(C)(C)c3nc(NS(=O)(=O)C4CC4)ncc3C)cc2)n1`, in assay [2], the Ratio IC50 stood at 2.

Take `CCOc1cncc(-c2ccc(NC(=O)C(F)(CC)c3ccnc(NS(=O)(=O)C4CC4)n3)nc2)n1` (stereo in doubt; form 1): the pIC50 in assay [1] was ≥ 7.00.

In the case of `CCOc1cncc(-c2ccc(NC(=O)C3(c4ccnc(NS(=O)(=O)C5(C#N)CC5)n4)CCOCC3)nc2)n1`, the pIC50 in assay [1] is ≥ 7.00.

Take `CC(C)Oc1cncc(-c2ccc(NC(=O)C(C)(C)c3ccnc(NS(=O)(=O)C4CC4)n3)cc2)n1`: in assay [1], the pIC50 is ≥ 7.00.

`CCOc1cncc(-c2ccc(NC(=O)C(F)(CC)c3ccnc(NS(=O)(=O)C4CC4)n3)nc2)n1` (stereo in doubt; form 2): in assay [2], the Ratio IC50 amounted to 2.

Turning to `CCOc1cncc(-c2ccc(NC(=O)C(OC)c3cncc(NS(=O)(=O)C4CC4)n3)cc2)n1` (stereo unspecified), the pIC50 in assay [1] was ≥ 7.00.

For the compound `CC(C)(C(=O)Nc1ccc(-c2cncc(C3CC3)n2)cc1F)c1ccnc(NS(=O)(=O)C2CC2)n1`, the Ratio IC50 in assay [2] was 2.

For `CCC(C(=O)Nc1ccc(-c2cncc(C(F)(F)F)n2)cc1)c1ccnc(NS(=O)(=O)C2CC2)n1` (stereo unspecified), in assay [2], the Ratio IC50 worked out at 2.

For `CCOc1cncc(-c2ccc(NC(=O)C(CC)(CC)c3ccnc(NS(=O)(=O)C4CC4)n3)cc2)n1`, the pIC50 in assay [1] was ≥ 7.00.

For `CCOc1cncc(-c2ccc(NC(=O)C(F)(CC)c3cncc(NS(=O)(=O)C4CC4)n3)nc2)n1` (stereo in doubt; form 3), the Ratio IC50 in assay [2] stood at 2.

As to `CCOc1cncc(-c2ccc(NC(=O)C(C)(C)c3ccnc(NS(=O)(=O)C4CC4)n3)cn2)n1`, the pIC50 in assay [1] was ≥ 7.00.

`CCOc1cncc(-c2ccc(NC(=O)C3(c4ccnc(NS(=O)(=O)C5CC5)n4)CCC(O)CC3)nc2)n1` (stereo in doubt) [listing 1 of 2 here]: the Ratio IC50 in assay [2] is > 60.

Take `CCOc1cncc(-c2ccc(NC(=O)C(C)(C)c3ccnc(NS(=O)(=O)C4CC4)n3)c(OC)c2)n1`: the pIC50 in assay [1] was ≥ 7.00.

For the compound `CCOc1cccc(-c2ccc(NC(=O)C(C)(C)c3ccnc(NS(=O)(=O)C4CC4)n3)cc2)c1`, in assay [1], the pIC50 is 5.00.

In the case of `CCOc1cncc(-c2ccc(NC(=O)C(CC)c3nccc(NS(=O)(=O)C4CC4)n3)nc2)n1` (stereo unspecified), the pIC50 in assay [1] was ≥ 7.00.

Turning to `CCC(F)(C(=O)Nc1ccc(-c2cncc(Cl)c2)cn1)c1ccnc(NS(=O)(=O)C2CC2)n1` (stereo unspecified), the pIC50 in assay [1] is ≥ 7.00.

On to `O=C(Cc1ccnc(NS(=O)(=O)C2CC2)n1)Nc1ccc(-c2cncc(C(F)(F)F)n2)cc1F`, for which, in assay [1], the pIC50 is ≥ 7.00.

For `CC(C)(C(=O)Nc1ccc(-c2cncc(OC(F)F)c2)cc1)c1ccnc(NS(=O)(=O)C2CC2)n1`, the pIC50 in assay [1] was ≥ 7.00.

On to `CCOc1cncc(-c2cc(F)c(NC(=O)C(C)(C)c3ccnc(NS(=O)(=O)C4CC4)n3)c(F)c2)n1`, for which, in assay [1], the pIC50 is ≥ 7.00.

For `CCOc1cncc(-c2ccc(C(=O)NC(CC)c3cncc(NS(=O)(=O)C4CC4)n3)c(F)c2)n1` (stereo unspecified), in assay [1], the pIC50 was ≥ 7.00.

`CCOc1cncc(-c2ccc(NC(=O)C3(c4ccnc(NS(=O)(=O)C5CC5)n4)CC4(C3)OCCO4)nc2)n1`: the pIC50 in assay [1] is ≥ 7.00.

`CCOc1cncc(-c2cnc(NC(=O)C(C)(C)c3ccnc(NS(=O)(=O)C4CC4)n3)c(F)c2)n1`: in assay [1], the pIC50 was ≥ 7.00.

Turning to `CCC(C(=O)Nc1ccc(-c2cncc(OC(C)C)n2)cc1F)c1ccnc(NS(=O)(=O)C2CC2)n1` (stereo unspecified), the pIC50 in assay [1] was ≥ 7.00.

As for `CCOc1cncc(-c2ccc(NC(=O)C3(c4ccnc(NS(=O)(=O)C5CC5)n4)CCC(N(C)C)CC3)nc2)n1` (stereo in doubt; form 1) [listing 2 of 2 here], in assay [1], the pIC50 was ≥ 7.00.

Regarding `CCOc1cncc(-c2ccc(NC(=O)C(OC)c3cncc(NS(=O)(=O)C4CC4)n3)nc2)n1` (stereo unspecified), the pIC50 in assay [1] was ≥ 7.00.

With `CC(C)(C(=O)Nc1ccc(-c2cncc(C(F)(F)F)n2)cc1)c1ccnc(NS(=O)(=O)C2CC2)n1`, the pIC50 in assay [1] was ≥ 7.00.

Consider `CCOc1cncc(-c2ccc(NC(=O)C(F)(CC)c3cncc(NS(=O)(=O)C4CC4)n3)nc2)n1` (stereo in doubt; form 1), for which, in assay [1], the pIC50 is ≥ 7.00.

Take `CCC(F)(C(=O)Nc1ccc(-c2cncc(C3CC3)n2)cn1)c1ccnc(NS(=O)(=O)C2CC2)n1` (stereo unspecified): in assay [1], the pIC50 was ≥ 7.00.

`CCS(=O)(=O)Nc1nccc(C(C)(C)C(=O)Nc2ccc(-c3cncc(OC)n3)cc2F)n1`: in assay [1], the pIC50 is ≥ 6.00.

For the compound `CCC(NC(=O)c1ccc(-c2cncc(OC(C)C)n2)cc1)c1ccnc(NS(=O)(=O)C2CC2)n1` (stereo unspecified), in assay [1], the pIC50 is ≥ 7.00.

As to `CCOc1cncc(-c2ccc(NC(=O)C3(c4ccnc(NS(=O)(=O)C5CC5)n4)CCC(O)CC3)nc2)n1` (stereo in doubt) [listing 2 of 2 here], the negative-log IC50 (pIC50) in assay [1] was ≥ 7.00.

On to `CCOc1cncc(-c2ccc(NC(=O)C(C)(C)c3ccnc(NS(=O)(=O)C4CC4)n3)c(Cl)c2)n1`, for which the pIC50 in assay [1] was ≥ 7.00.

`COc1cncc(-c2ccc(NC(=O)Cc3cccc(NS(=O)(=O)C4CC4)n3)cc2)n1`: the pIC50 in assay [1] is ≥ 7.00.

`COc1cncc(-c2ccc(NC(=O)Cc3ccnc(NS(=O)(=O)C4CC4)n3)cc2)n1`: the pIC50 in assay [1] was ≥ 7.00.

On to `CCC(C(=O)Nc1ccc(-c2cncc(C3CC3)n2)cc1F)c1ccnc(NS(=O)(=O)C2CC2)n1` (stereo unspecified), for which the pIC50 in assay [1] is ≥ 7.00.

Consider `CCOc1cncc(-c2ccc(NC(=O)C3(c4ccnc(NS(=O)(=O)C5CC5)n4)CCC(OC)CC3)nc2)n1` (stereo unspecified), for which, in assay [1], the pIC50 was ≥ 7.00.

Take `CCOc1cncc(-c2ccc(NC(=O)C3(c4cccc(NS(=O)(=O)C5CC5)n4)CCOCC3)nc2)n1`: the pIC50 in assay [1] is ≥ 7.00.

Turning to `COc1cncc(-c2ccc(NC(=O)C(C)(C)c3ccnc(NS(=O)(=O)C4CC4)n3)cc2)n1`, in assay [1], the pIC50 is ≥ 7.00.

`CCOc1cncc(-c2ccc(NC(=O)C(c3ccnc(NS(=O)(=O)C4CC4)n3)C(C)C)c(F)c2)n1` (stereo unspecified): in assay [1], the pIC50 is ≥ 7.00.

As to `CC(C)(C(=O)Nc1ccc(-c2cncc(C(F)(F)F)n2)cc1F)c1ccnc(NS(=O)(=O)C2CC2)n1`, the pIC50 in assay [1] is ≥ 7.00.

As for `CCOc1cncc(-c2ccc(NC(=O)C(C)(C)c3ccnc(NS(=O)(=O)C4CC4)n3)c(OC(F)(F)F)c2)n1`, the pIC50 in assay [1] is ≥ 7.00.

With `CCOc1cncc(-c2ccc(NC(=O)C(c3ccnc(NS(=O)(=O)C4CC4)n3)C(C)C)nc2)n1` (stereo unspecified), the pIC50 in assay [1] is ≥ 7.00.

For the compound `CCC(C(=O)Nc1ccc(-c2cncc(Cl)c2)cn1)c1ccnc(NS(=O)(=O)C2CC2)n1` (stereo unspecified), the pIC50 in assay [1] was ≥ 7.00.

On to `CCC(C(=O)Nc1ccc(-c2cncc(C3CC3)n2)cn1)c1ccnc(NS(=O)(=O)C2CC2)n1` (stereo unspecified), for which the pIC50 in assay [1] was ≥ 7.00.

As for `CCOc1cncc(-c2cnc(NC(=O)C(CCOC)c3ccnc(NS(=O)(=O)C4CC4)n3)c(F)c2)n1` (stereo unspecified), the pIC50 in assay [1] was ≥ 7.00.

With `CCOc1cncc(-c2ccc(NC(=O)C(C)(OC)c3cncc(NS(=O)(=O)C4CC4)n3)nc2)n1` (stereo unspecified), in assay [1], the pIC50 is ≥ 7.00.

Take `CCOc1cncc(-c2ccc(NC(=O)C(F)(c3ccnc(NS(=O)(=O)C4CC4)n3)C(C)C)nc2)n1` (stereo unspecified): in assay [1], the pIC50 was ≥ 7.00.

Consider `CCOc1cncc(-c2ccc(NC(=O)C3(c4ccnc(NS(=O)(=O)C5CC5)n4)CCOCC3)cc2)n1`, for which, in assay [1], the pIC50 was ≥ 7.00.

Turning to `CCC(C(=O)Nc1ccc(-c2cncc(OCC(F)(F)F)n2)cn1)c1ccnc(NS(=O)(=O)C2CC2)n1` (stereo unspecified), the pIC50 in assay [1] is ≥ 7.00.

With `CCOc1cncc(-c2ccc(NC(=O)C(C)(C)c3ccnc(NS(C)(=O)=O)n3)cc2)n1`, the pIC50 in assay [1] was ≥ 7.00.

Take `CC(C)(C(=O)Nc1ccc(-c2cncc(C(F)(F)F)n2)cn1)c1ccnc(NS(=O)(=O)C2CC2)n1`: the pIC50 in assay [1] was ≥ 7.00.

As to `O=C(Cc1ccnc(NS(=O)(=O)C2CC2)n1)Nc1ccc(-c2cncc(OCC(F)(F)F)n2)cc1`, in assay [1], the pIC50 is ≥ 7.00.
